# Measured values from BindingDB's records for doi:10.1016/S0960-894X(97)00083-8 (1997).
# pIC50: −log10 of the molar value.
# Target: Integrin alpha-IIb/beta-3 (Homo sapiens, UniProt P08514+P05106)
# Assay: ChEBML_215984
# Chain of Integrin alpha-IIb/beta-3 (P05106 27-788 limits assumed): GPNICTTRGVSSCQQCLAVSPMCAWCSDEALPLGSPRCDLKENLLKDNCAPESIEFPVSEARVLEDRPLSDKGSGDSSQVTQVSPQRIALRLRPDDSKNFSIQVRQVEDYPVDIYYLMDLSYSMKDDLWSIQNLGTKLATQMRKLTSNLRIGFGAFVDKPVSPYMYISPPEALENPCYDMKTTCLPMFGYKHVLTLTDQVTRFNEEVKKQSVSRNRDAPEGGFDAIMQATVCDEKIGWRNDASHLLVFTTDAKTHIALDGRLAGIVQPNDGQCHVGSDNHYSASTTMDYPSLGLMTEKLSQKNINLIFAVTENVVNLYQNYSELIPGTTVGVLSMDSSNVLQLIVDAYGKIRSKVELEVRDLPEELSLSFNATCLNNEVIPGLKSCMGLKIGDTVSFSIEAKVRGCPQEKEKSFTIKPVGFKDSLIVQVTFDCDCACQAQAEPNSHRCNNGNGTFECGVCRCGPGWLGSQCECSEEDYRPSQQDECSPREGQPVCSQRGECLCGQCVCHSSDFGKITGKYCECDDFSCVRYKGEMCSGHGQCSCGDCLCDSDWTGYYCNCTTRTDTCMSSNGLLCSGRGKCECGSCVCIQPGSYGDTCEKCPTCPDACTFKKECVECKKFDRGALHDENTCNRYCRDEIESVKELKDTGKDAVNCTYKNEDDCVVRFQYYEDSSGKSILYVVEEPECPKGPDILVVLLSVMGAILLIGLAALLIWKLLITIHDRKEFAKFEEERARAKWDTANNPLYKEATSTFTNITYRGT
# Chain of Integrin alpha-IIb/beta-3 (P08514 32-887 limits assumed): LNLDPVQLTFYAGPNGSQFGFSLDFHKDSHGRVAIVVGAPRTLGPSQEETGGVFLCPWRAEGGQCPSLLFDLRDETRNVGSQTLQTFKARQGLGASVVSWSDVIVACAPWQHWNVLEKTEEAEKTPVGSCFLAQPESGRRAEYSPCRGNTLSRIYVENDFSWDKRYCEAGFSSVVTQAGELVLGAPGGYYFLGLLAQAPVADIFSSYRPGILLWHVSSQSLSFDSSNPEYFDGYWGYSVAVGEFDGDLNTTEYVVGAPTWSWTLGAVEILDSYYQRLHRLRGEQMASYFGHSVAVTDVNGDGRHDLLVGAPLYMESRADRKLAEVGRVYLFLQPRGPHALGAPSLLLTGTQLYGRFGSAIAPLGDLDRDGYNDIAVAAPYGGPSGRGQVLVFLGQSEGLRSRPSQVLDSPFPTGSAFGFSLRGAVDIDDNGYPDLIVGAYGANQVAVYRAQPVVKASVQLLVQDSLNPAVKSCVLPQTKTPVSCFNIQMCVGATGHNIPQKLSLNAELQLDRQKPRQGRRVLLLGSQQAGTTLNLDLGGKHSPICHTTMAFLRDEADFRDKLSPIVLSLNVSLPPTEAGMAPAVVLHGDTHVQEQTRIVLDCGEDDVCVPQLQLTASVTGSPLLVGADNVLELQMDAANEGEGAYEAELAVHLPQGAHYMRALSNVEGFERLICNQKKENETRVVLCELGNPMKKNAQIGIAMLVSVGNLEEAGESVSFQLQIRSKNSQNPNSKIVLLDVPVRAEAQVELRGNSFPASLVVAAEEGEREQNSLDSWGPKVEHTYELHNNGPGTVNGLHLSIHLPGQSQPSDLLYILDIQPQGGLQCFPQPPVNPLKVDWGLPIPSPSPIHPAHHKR
# Chain of Integrin alpha-IIb/beta-3 (P08514 891-1039 limits assumed): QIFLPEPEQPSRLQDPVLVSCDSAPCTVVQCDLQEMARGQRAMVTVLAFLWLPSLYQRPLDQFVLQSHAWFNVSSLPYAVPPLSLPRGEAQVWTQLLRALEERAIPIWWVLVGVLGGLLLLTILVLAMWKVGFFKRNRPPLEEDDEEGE
compound,measurement,value
CC(C)C1CN(C)C(CCCN=C(N)NC(=O)c2ccc(N=[N][Tc]345(=[P@SP2](c6ccc([S@TB1](=O)(=O)O)cc6)(c6ccccc6S(=O)(=O)O)c6ccccc6[S@TB1](=O)(=O)O)[O]CC[N]3C(CO)(C[O]4)C[O]5)nc2)C(=O)NCC(=O)NC(CC(=O)O)C(=O)NCc2cc(NC(=O)CCCCCN)cc(c2)C(=O)N1 (stereo unspecified) [RP-444],pIC50,7.89
